From patent publication US20090286785A1, “Pyrimidine Derivatives” (Bayer Pharmaceuticals Corporation, priority 2005, published 2009)
Like-named read-outs stand apart in the source and are kept apart here.

System: HCT116 cells
Experiment: HCT116 cytotoxic activity assay (Alamar Blue, 72 h)
Conditions: Homo sapiens, HCT-116, 72 h
[1] = read-out: IC50 in the HCT116 cytotoxic activity assay

Protocol: Human tumor cells, e.g., HCT116 cells, are seeded in a 96-well plate at 3.0×10^3 cells/well and grown in 100 μl of RPMI complete media (Invitrogen Corporation, Grand Island, N.Y.) containing 10% fetal bovine serum (Hyclone, Logan, Utah) and 10 mM HEPES and at 37° C. for 16 h in an incubator with 5% CO2. To each well, 50 μl of additional growth media containing 20 μM to 60 nM concentrations of compound with 0.2% DMSO is added. Cells are grown for another 72 h at 37° C. 20 μl of Alamar Blue (Trek Diagnostic Systems, Inc., Cleveland, Ohio) reagent is added to each well and incubated for 4 h at 37° C. Plates are read in a SpectraMax Gemini (Molecular Devices, CA) with 544 nm excitation and 590 nm emission wavelength. IC50 values are determined by linear regression analysis of log drug concentration versus percent inhibition.

Structure (SMILES)	IC50 [1]	IC50 (read-out: IC50 in the HCT116 cytotoxic activity assay (upper bound of bin))
Nc1nc(Nc2ccc(Oc3ccnc(C(F)(F)F)c3)cc2)cc(-c2ccc3[nH]cc(CN4CCOCC4)c3c2)n1 [Example 15, 6-[3-(morpholin-4-ylmethyl)-1H-indol-5-yl]-N^4-(4-{[2-(trifluoromethyl)pyridin-4-yl]oxy}phenyl)pyrimidine-2,4-diamine]	> 500 nM	≤ 5000 nM
Nc1nc(Nc2ccc(Oc3ccnc(C(F)(F)F)c3)cc2)cc(-c2ccc3[nH]ccc3c2)n1 [Example 12, 6-(1H-indol-5-yl)-N^4-(4-{[2-(trifluoromethyl)pyridin-4-yl]oxy}phenyl)pyrimidine-2,4-diamine]	≤ 500 nM	
